Results from patent US9937178B2, “Methods of identifying and using MDM2 inhibitors” (DUKE UNIVERSITY, priority 2011, dated 2018).

System: mitochondrial cytochrome c release
Experiment: Western blot for cytochrome c in cytosolic lysates lacking mitochondria
Settings: 1 μM lapatinib, 24 hours

In the case of CS(=O)(=O)CCNCc1ccc(-c2ccc3ncnc(Nc4ccc(OCc5cccc(F)c5)c(Cl)c4)c3c2)o1 [lapatinib], the “mitochondrial cytochrome c release” value (parental BT474 cells) is reported as “induced mitochondrial cytochrome c release in parental BT474 cells” and the “mitochondrial cytochrome c release” value (rBT474 cells) is reported as “not rBT474 cells”.
